Experimental data published in patent US20070167511A1, “Medicinal composition for prevention or treatment of overactive bladder accompanying nervous disorder” (KISSEI PHARMACEUTICAL CO,. LTD., priority 2004, published 2007).

System: rat spinal cord injured OAB model
Experiment: Urodynamic study (cystometry) in rat spinal cord injured OAB model
Type: in vivo
Details: conscious female rats with spinal cord transection at Th10, intravenous injection 0.1 mg/kg
Method: Efficacy on Urodynamic Study in Rat Spinal Cord Injured OAB Model
In ether anesthetized female rats, spinal cord transection was performed at the level of Th10. About 1 month after the spinal cord transection, each rat was anesthetized with pentobarbital and a catheter filled with saline was implanted into the urinary bladder, ligated, secured on the back of the neck and closed. Seven days after the bladder catheter implantation, another catheter filled with heparin-containing saline was implanted into the […], and ligated, secured on the back of the neck and closed. The next day, cystometry was performed in the conscious rat under free moving. Saline was instilled into the urinary bladder at a rate of 12 mL/hr. A drug was injected through the […] catheter that was secured on the back of the neck. […] Intravenous injection of compound 1 (0.1 mg/kg) prolonged the micturition interval by about 20% (FIG. 1) and decreased the frequency of involuntary contraction in filling phase by 20% (FIG. 2) in the same model.

## C[C@H](Cc1cc2c(c(C(N)=O)c1)N(CCCO)CC2)NCCOc1ccccc1OCC(F)(F)F [compound 1, (−)-1-(3-hydroxypropyl)-5-((2R)-2-{[2-({2-[(2,2,2-trifluoroethyl)oxy]phenyl}oxy)ethyl]amino}propyl)-2,3-dihydro-1H-indol-7-yl-carboxamide]
Versus value before drug administration (FIG. 1)
  prolongation of the micturition interval: about 20%
Versus value before drug administration (FIG. 2)
  decrease of the frequency of involuntary contraction in filling phase: 20%
